# Assay results as given in the NIST ThermoML archive (doi:10.1016/j.fluid.2017.06.018).
# Several values for one entry are separate records, joined by “and”; a condition that tells them apart may be missing. Identical values can stand only once. Numbers after ± are expanded uncertainties.
# Legend:
# [1] = refractive index (Na D-line) (dimensionless); xn = mol fraction of the nth substance listed; settings: 100 kPa, Liquid, Standard Abbe refractometry, x1 = 1
# [2] = xn = mol fraction of the nth substance listed; settings: 100 kPa, Liquid, x1 = 1; for viscosity: Falling or rolling sphere viscometry; for mass density: Vibrating tube method
# [3] = refractive index (Na D-line) (dimensionless); settings: 100 kPa, Liquid, Standard Abbe refractometry
# [4] = 100 kPa, Liquid; for viscosity: Falling or rolling sphere viscometry; for mass density: Vibrating tube method
SMILES,refractive index ([1]; 298.15 K),refractive index ([1]; 303.15 K),refractive index ([1]; 308.15 K),viscosity ([2]; 298.15 K) [mPa·s],mass density ([2]; 298.15 K) [kg/m3],viscosity ([2]; 303.15 K) [mPa·s],mass density ([2]; 303.15 K) [kg/m3],viscosity ([2]; 308.15 K) [mPa·s],mass density ([2]; 308.15 K) [kg/m3],refractive index ([3]; 298.15 K),refractive index ([3]; 303.15 K),refractive index ([3]; 308.15 K),viscosity ([4]; 298.15 K) [mPa·s],mass density ([4]; 298.15 K) [kg/m3],viscosity ([4]; 303.15 K) [mPa·s],mass density ([4]; 303.15 K) [kg/m3],viscosity ([4]; 308.15 K),mass density ([4]; 308.15 K) [kg/m3]
NCCO [2-aminoethan-1-ol] + NCCNCCN,1.4535 ± 0.0021,1.4519 ± 0.0021,1.4505 ± 0.0021,18.72 ± 0.44,1012.4 ± 2.2,15.15 ± 0.36,1008.4 ± 2.1,11.9 ± 0.28,1004.5 ± 2.1,,,,,,,,,
NCCNCCO [N-(2-aminoethyl)ethanolamine],,,,,,,,,,1.4843 ± 0.002,1.4827 ± 0.002,1.4811 ± 0.002,98.62 ± 2.9,1025.8 ± 2,70.57 ± 1.6,1021.3 ± 2,53.11 ± 1.1 mPa·s,1016.3 ± 2
NCCNCCN [di(2-aminoethyl)amine],,,,,,,,,,1.4822 ± 0.0021,1.4808 ± 0.0021,1.4793 ± 0.0021,5.63 ± 0.13,945.8 ± 2.1,4.5 ± 0.11,942.1 ± 2.1,3.85 ± 0.09 mPa·s,937.8 ± 2.1
NCCO [2-aminoethan-1-ol],,,,,,,,,,1.4535 ± 0.0021,1.4519 ± 0.0021,1.4505 ± 0.0021,18.72 ± 0.44,1012.4 ± 2.2,15.15 ± 0.36,1008.4 ± 2.1,11.9 ± 0.28 mPa·s and 11.96 ± 0.28 mPa·s,1004.5 ± 2.1
NCCO [2-aminoethan-1-ol] + NCCNCCO,1.4535 ± 0.0021,1.4519 ± 0.0021,1.4505 ± 0.0021,18.72 ± 0.44,1012.4 ± 2.2,15.15 ± 0.36,1008.4 ± 2.1,11.96 ± 0.28,1004.5 ± 2.1,,,,,,,,,
